In paper doi:10.1101/2025.11.27.691040v1 (biorxiv, 2025) one finds Kd data, which are given here for 1 compound.

What is called pKd is −log10 of the Kd, conventionally taken in molar units. A lower pKd goes with a large Kd.

pKd: −log10 of the molar value.

For the assay, the target named is T1, AtCKA1 (Arabidopsis thaliana, UniProt Q08467).
T1 sequence (Q08467 76-409): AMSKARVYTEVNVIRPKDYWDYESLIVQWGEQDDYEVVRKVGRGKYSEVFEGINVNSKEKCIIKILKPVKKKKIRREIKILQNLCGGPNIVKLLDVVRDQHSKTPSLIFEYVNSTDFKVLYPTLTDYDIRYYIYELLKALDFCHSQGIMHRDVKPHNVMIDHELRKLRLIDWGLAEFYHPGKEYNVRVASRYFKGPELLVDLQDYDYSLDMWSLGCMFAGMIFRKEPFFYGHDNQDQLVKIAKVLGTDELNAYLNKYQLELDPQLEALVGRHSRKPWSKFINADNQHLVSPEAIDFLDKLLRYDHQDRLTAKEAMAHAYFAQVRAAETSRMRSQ
Description: biochemical.

As to `O=P(O)(O)O[C@H]1[C@H](OP(=O)(O)O)[C@@H](OP(=O)(O)O)[C@H](OP(=O)(O)O)[C@@H](OP(=O)(O)O)[C@H]1OP(=O)(O)O` [InsP6], the pKd is 5.70.
